The values that follow come from US20180273528A1 (LES LABORATOIRES SERVIER, priority 2015, published 2018).

Assay [1] concerns the target T1, His-TEV-DYRK1A Kinase domain (aa127-485) (Homo sapiens, UniProt Q13627).
T1 construct: His-TEV-DYRK1A Kinase domain (aa127-485); His tag (N); TEV protease cleavage site (N)
The assay is described as follows: Kinase ADP assay (ADP Hunter), DYRK1A kinase domain. It counts as biochemical. To be noted: 20 μM ATP. A digest of the protocol:
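Compounds incubated 10 min at 30 °C with 20 nM enzyme, 40 μM peptide substrate and 20 μM ATP in pH 7.4 Hepes buffer with 10 mM MgCl2. ADP formed detected by ADP Hunter Plus reagents after 20 min at 30 °C, fluorescence read at 590 nm.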

The target of assay [2] is T2, DYRK1A (Homo sapiens, UniProt Q13627). The assay is described as follows: Kinase TR-FRET assay, DYRK1A. It counts as biochemical. On the set-up: full-length, wild-type human DYRK1A (NM_001396) with an HA tag; expressed in transfected cells; host or cells: human U2-OS osteosarcoma cells, transient transfection of a pcDNA3.1 plasmid. To be noted: full-length human kinase, 10 μM ATP. As to the method:
Inhibition of the enzymatic activity of human kinases was evaluated in a Time-Resolved Fluorescence Resonance Energy Transfer (TR-FRET) assay in 384-well reaction plates. […] Test compounds of the invention were added in reaction buffer at a range of concentrations from 0.1 nM to 30 μM. Following addition of EDTA (Sigma E7889, 10 mM) to stop the reaction, Europium-labelled mouse monoclonal antibody recognizing phospho-Thr232 in MBP (Perkin Elmer TRF0201, 1 nM) was added.
On the technique in general: Time-resolved FRET reads energy transfer from a long-lived donor to a nearby acceptor.

Assay [3] addresses T2, DYRK1A. The assay is described as follows: Cellular DYRK1 autophosphorylation assay in U2-OS cells. Type of assay: cell-based. On the set-up: full-length, wild-type human DYRK1A (NM_001396) with an HA tag; expressed in transfected cells; host or cells: human U2-OS osteosarcoma cells, transient transfection of a pcDNA3.1 plasmid. The note with it: U2-OS cells transfected with HA-tagged human DYRK1A, 5 hours exposure; read-out: IC50 (μM) P-Ser520-Dyrk1A -Cell assay. The protocol:
On day 2, cells were exposed to a range of concentrations of the test compounds of the invention for 5 hours. […] The relative levels of phospho-Ser520-DYRK1A were assayed using either western blotting or the Mesoscale ELISA platform. For analysis by western blot, lysates were diluted into Laemmli sample buffer (Bio-Rad) containing 5% v/v β-mercaptoethanol, heated for 5 min at 95° C., and resolved on Tris-glycine gels or NuPage Bis-Tris gels (Novex; Invitrogen). Biotinylated molecular weight standards (Cell Signaling Technology) were included in all gels. Proteins were transferred to nitrocellulose membranes (Hybond, ECL; Amersham), which were blocked in Tris-buffered saline/0.1% tween 20 (TBST) containing 5% milk, and probed at 4° C. overnight with anti-phospho-Ser520-DYRK1A antibody (Eurogentec SE6974-75; 0.23 μg/ml in 5% BSA) or anti DYRK1A antibody (Abnova H00001859; 0.5 μg/ml in 5% milk). Peroxidase-conjugated secondary antibodies were diluted into 5% milk and applied to membranes for 1 h at 20° C. Chemiluminescence detection was performed using the ECL plus western blotting detection kit (Amersham) and was recorded on ECL plus hyperfilm (Amersham). Blots were scanned using the Bio-Rad GS-800 calibrated densitometer and quantitative analysis of western blots was performed using TotalLab software (Amersham). IC50 values for inhibition of phospho-Ser520-DYRK1A were calculated from dose-response curves plotting the ratio between phospho-Ser520-DYRK1A and total DYRK1A signals at each concentration. […] Anti-phospho-Ser520-DYRK1A antibody (Eurogentec SE6974-75; […]) and anti DYRK1A antibody (Abnova H00001859; 3 μg/ml) was then added for 1 hour at RT, followed by addition of Sulfa-TAG anti-rabbit detection antibody (ref MSD R32AB; 1 μg/ml) and Sulfa-TAG anti-mouse detection antibody (ref MSD R32-AC-1; 1 μg/ml). After a further 1 hour, Read Buffer was added and plates were read on the Sector Imager 2400 (Mesoscale). IC50 values for inhibition of phospho-Ser520-DYRK1A were calculated from dose-response curves.

Molecules are shown by their SMILES.

Take `Cc1nn(C)c(C)c1Cn1c(C)nc2ccc(-c3cc(N)nc(N)c3)nc21` [Example 45, 4-{2-methyl-3-[(3,5-trimethyl-1H-pyrazol-4-yl)methyl]-3H-imidazo[4,5-b]pyridin-5-yl}pyridine-2,6-diamine]: the half-inhibitory concentration (IC50) – broadly, the midpoint of a concentration-inhibition curve – in assay [1] was found to be 0.055 µM; at DYRK1A [2], 0.177 µM.
The like results for `CCC(C)n1c(C)nc2ccc(-c3cc(N)nc(N)c3)nc21` (stereo not shown) [Example 33, 4-[3-(butan-2-yl)-2-methyl-3H-imidazo[4,5-b]pyridin-5-yl]pyridine-2,6-diamine] were, in that order, 0.018 µM and 0.045 µM.
Consider `Cc1nc2ccc(-c3cc(N)nc(N)c3)nc2n1[C@H]1C[C@H]2C[C@@H]([C@@H]1C)C2(C)C` [Example 16, 4-[2-methyl-3-[(1S,2S,3S,5R)-2,6,6-trimethylbicyclo[3.1.1]hept-3-yl]-3H-imidazo[4,5-b]pyridin-5-yl]pyridine-2,6-diamine], for which the IC50 in assay [1] was 0.367 µM; at DYRK1A [2], 0.153 µM.
`CCCCn1c(C)nc2ccc(-c3cc(N)nc(NC(=O)COc4ccccc4)c3)nc21` [Example 230, N-[6-amino-4-(3-butyl-2-methyl-3H-imidazo[4,5-b]pyridin-5-yl)pyridin-2-yl]-2-phenoxyacetamide]: the 50% inhibitory concentration (IC50) in assay [1] is 0.928 µM; against DYRK1A [2] it was 0.221 µM.
As for `CCCCn1c(C)nc2ccc(-c3cc(N)nc(NC(=O)C4CCCCC4)c3)nc21` [Example 234, N-[6-amino-4-(3-butyl-2-methyl-3H-imidazo[4,5-b]pyridin-5-yl)pyridin-2-yl]cyclohexanecarboxamide], the IC50 in assay [1] was 0.236 µM; at DYRK1A [2], 0.09 µM.
For the molecule `Cn1c(C(F)(F)F)nc2ccc(-c3cc(N)nc(N)c3)nc21` [Example 229, 4-[3-methyl-2-(trifluoromethyl)-3H-imidazo[4,5-b]pyridin-5-yl]pyridine-2,6-diamine], the IC50 was 0.081 µM in assay [1] and 0.061 µM against DYRK1A [2].
On the same counts, the results for `Cc1nc2ccc(-c3cc(N)nc(N)c3)nc2n1CC12CC3CC(CC(C3)C1)C2` [Example 22, 4-{2-methyl-3-tricyclo[3.3.1.1^3,7]dec-1-ylmethyl-3H-imidazo[4,5-b]pyridin-5-yl}pyridine-2,6-diamine] are 0.364 µM and 0.069 µM.
In the case of `CCC(CC)Cn1c(C)nc2ccc(-c3cc(N)nc(N)c3)nc21` [Example 18, 4-[3-(2-ethylbutyl)-2-methyl-3H-imidazo[4,5-b]pyridin-5-yl]pyridine-2,6-diamine], the half-inhibitory concentration (IC50) in assay [1] was 0.013 µM; on DYRK1A [2] it was 0.002 µM; at DYRK1A [3] it was 0.108 µM.
Turning to `CCOC(=O)N1CCC(n2c(C)nc3ccc(-c4cc(N)nc(N)c4)nc32)CC1` [Example 35], the 50% inhibitory concentration (IC50) in assay [1] was found to be 0.008 µM; against DYRK1A [2], 0.012 µM.
The like results for `Cc1nc2ccc(-c3cc(N)nc(N)c3)nc2n1Cc1ccccc1` [Example 8, 4-(3-benzyl-2-methyl-3H-imidazo[4,5-b]pyridin-5-yl)pyridine-2,6-diamine] were, in that order, 0.128 µM and 0.061 µM.
On the same counts, the results for `Cc1nc2ccc(-c3cc(N)nc(N)c3)nc2n1Cc1cc(F)ccc1F` [Example 46, 4-[3-(2,5-difluorobenzyl)-2-methyl-3H-imidazo[4,5-b]pyridin-5-yl]pyridine-2,6-diamine] are 0.035 µM and 0.056 µM.
On the same counts, the results for `Cc1nc2ccc(-c3cc(N)nc(N)c3)nc2n1CC(O)CO` (stereo not shown) [Example 37, 3-[5-(2,6-diaminopyridin-4-yl)-2-methyl-3H-imidazo[4,5-b]pyridin-3-yl]propane-1,2-diol] are 0.027 µM and 0.052 µM.
As for `Cc1nc2ccc(-c3cc(N)nc(N)c3)nc2n1C1CCCc2ccccc21` (stereo not shown) [Example 62, 4-[2-methyl-3-(1,2,3,4-tetrahydronaphthalen-1-yl)-3H-imidazo[4,5-b]pyridin-5-yl]pyridine-2,6-diamine], the 50% inhibitory concentration (IC50) in assay [1] was 0.781 µM; at DYRK1A [2] it was 0.166 µM.
For `Cc1cc([C@@H](C)n2c(C)nc3ccc(-c4cc(N)nc(N)c4)nc32)ccn1` [Example 32, 4-{2-methyl-3-[(I R)-1-(2-methylpyridin-4-yl)ethyl]-3H-imidazo[4,5-b]pyridin-5-yl}pyridine-2,6-diamine], the IC50 in assay [1] turned out to be 0.037 µM; at DYRK1A [2] it was 0.095 µM.
The like results for `Cc1nc2ccc(-c3cc(N)nc(N)c3)nc2n1Cc1cccc(Cl)c1` [Example 48, 4-[3-(3-chlorobenzyl)-2-methyl-3H-imidazo[4,5-b]pyridin-5-yl]pyridine-2,6-diamine] were, in that order, 0.056 µM and 0.116 µM.
The like results for `COc1ccccc1CCCn1c(C)nc2ccc(-c3cc(N)nc(N)c3)nc21` [Example 69, 4-{3-[3-(2-methoxyphenyl)propyl]-2-methyl-3H-imidazo[4,5-b]pyridin-5-yl}pyridine-2,6-diamine] were, in that order, 0.007 µM and 0.002 µM.
As for `CCCCn1c(C)nc2ccc(-c3cc(N)nc(NC(=O)c4ccccc4Cl)c3)nc21` [Example 233, N-[6-amino-4-(3-butyl-2-methyl-3H-imidazo[4,5-b]pyridin-5-yl)pyridin-2-yl]-2-chlorobenzamide], the 50% inhibitory concentration (IC50) came out at 0.303 µM in assay [1] and 0.224 µM against DYRK1A [2].
The like results for `Cc1nc2ccc(-c3cc(N)nc(N)c3)nc2n1Cc1ccc(C#N)cc1` [Example 40, 4-{[5-(2,6-diaminopyridin-4-yl)-2-methyl-3H-imidazo[4,5-b]pyridin-3-yl]methyl}benzonitrile] were, in that order, 0.187 µM and 0.154 µM.
On the same counts, the results for `Cc1nc2ccc(-c3cc(N)nc(N)c3)nc2n1C1CCN(C(=O)C(C)C)CC1` [Example 38, 1-{4-[5-(2,6-diaminopyridin-4-yl)-2-methyl-3H-imidazo[4,5-b]pyridin-3-yl]piperidin-1-yl}-2-methylpropan-1-one] are 0.008 µM and 0.028 µM.
Regarding `Cc1nc2ccc(-c3cc(N)nc(N)c3)nc2n1CCC1CC1` [Example 17, 4-[3-(2-cyclopropylethyl)-2-methyl-3H-imidazo[4,5-b]pyridin-5-yl]pyridine-2,6-diamine], the concentration for half-maximal inhibition (IC50) in assay [1] is 0.011 µM; at DYRK1A [2], 0.006 µM; on DYRK1A [3] it was 0.063 µM.
Turning to `COc1cc(Cl)ccc1Cn1c(C)nc2ccc(-c3cc(N)nc(N)c3)nc21` [Example 39, 4-[3-(4-chloro-2-methoxybenzyl)-2-methyl-3H-imidazo[4,5-b]pyridin-5-yl]pyridine-2,6-diamine], the half-maximal inhibitory concentration (IC50) was determined as 0.045 µM in assay [1] and 0.245 µM against DYRK1A [2].
With `Cc1nc2ccc(-c3cc(N)nc(N)c3)nc2n1C(C)(C)c1ccccc1` [Example 60, 4-[2-methyl-3-(2-phenylpropan-2-yl)-3H-imidazo[4,5-b]pyridin-5-yl]pyridine-2,6-diamine], the IC50 in assay [1] came to 0.51 µM; against DYRK1A [2], 0.149 µM.
Regarding `CSCCCn1c(C)nc2ccc(-c3cc(N)nc(N)c3)nc21` [Example 44, 4-{2-methyl-3-[3-(methylsulfanyl)propyl]-3H-imidazo[4,5-b]pyridin-5-yl}pyridine-2,6-diamine], the results for the IC50 (in assay [1]; against DYRK1A [2]; on DYRK1A [3]) were 0.011 µM, 0.019 µM and 0.023 µM, respectively.
